Columns and labels:
[1] = tested on: MRSA ATCC 43300; assay: Antimicrobial efficacy in G. mellonella model of infection; type: in vivo, Galleria mellonella
Experimental: Procedure: Compound 14av_amine16 was tested in a Galleria mellonella model, which are an easy and inexpensive in vivo model with no ethical constraints for investigating antibacterial activity of a compound.^22 The G. mellonella model of S. aureus infection was used as previously described.^24 Briefly, 1 mL aliquots of overnight cultures of S. aureus 43300 were pelleted by centrifugation and washed with sterile PBS before being resuspended in 100 μL of PBS. G. mellonella larvae (N=10) that weighed 200-300 mg were then inoculated with 10 μL of S. aureus (2.5×10^6 CFU) into the last left proleg. Larvae were then treated with compounds at 1 h before bacterial inoculation. Treatments were performed in the same manner as infection, except that compounds were injected into the next left proleg moving toward the head of the larvae. […] Data was analyzed for statistical significance using a log rank and χ square test with 1 degree of freedom. Various concentrations of compound 14av_amine16 dissolved in 50% PEG in saline (0 mg/Kg, 50 mg/Kg and 100 mg/Kg) were injected into the hemocoel of last-instar G. mellonella larvae and survival was scored over time.
The efficacy of compound 14av_amine16 against G. mellonella larvae infected with MRSA ATCC 43300 was investigated. Inoculation of lethal dose of 2.5×10^6 CFU/larva of MRSA ATCC 43300 led to a significant death rate. […]

[2] = target: T1, S. aureus FtsZ (Staphylococcus aureus, UniProt P0A031); assay: Saturation Transfer Difference (STD) NMR study; type: binding; settings: 298K, line broadening and STD effect
T1 construct: 6-histidine tag; made in house; host or cells: E. coli BL21(DE3)
T1 sequence (P0A031 1-390): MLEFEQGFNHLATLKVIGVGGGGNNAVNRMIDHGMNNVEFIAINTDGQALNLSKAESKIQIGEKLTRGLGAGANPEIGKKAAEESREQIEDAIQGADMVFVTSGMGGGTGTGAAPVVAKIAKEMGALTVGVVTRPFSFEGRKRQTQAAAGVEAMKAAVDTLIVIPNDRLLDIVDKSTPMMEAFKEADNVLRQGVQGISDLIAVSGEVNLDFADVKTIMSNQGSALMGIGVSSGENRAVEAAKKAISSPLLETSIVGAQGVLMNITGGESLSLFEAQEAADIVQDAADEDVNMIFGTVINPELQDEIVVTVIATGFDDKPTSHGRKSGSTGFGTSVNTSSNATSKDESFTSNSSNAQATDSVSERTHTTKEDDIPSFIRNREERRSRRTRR
Experimental: Procedure for expression and purification of S. aureus FtsZ protein: S. aureus FtsZ protein was prepared as previous reported.^16a In brief, E. coli BL21(DE3) cells, transformed with a pRSET-A-S vector carrying S. aureus FtsZ with a 6-histidine tag attached, were streaked on a nutrient agar plate containing 50 μg/mL ampicillin. After overnight incubation at 37° C., a single colony was inoculated into 5 mL of Luria-Bertani (LB) medium in the presence of 50 μg/mL ampicillin, which was then incubated at 37° C., with shaking at 250 rpm for 16 h. […]
Procedure STD NMR study: STD NMR experiments were performed on a Bruker Avance III 600 NMR spectrometer equipped with a QCI cryoprobe at 298K. Spectra were recorded with a carrier set at 0.5 ppm for on-resonance irradiation and 30 ppm for off-resonance irradiation. Control spectra were recorded under identical conditions without compound to test for artifacts. Selective protein saturation was accomplished using a train of 40 Gauss-shaped pulses (50 ms with 1 ms delay between pulses) for a total saturation time of 2 s at an experimentally determined optimal power (7.7625 W on the probe); a T1p spinlock filter (20-50 ms) was incorporated to suppress protein resonances. STD spectra were recorded using a minimum of 128 scans and 32 k points covering a spectral width of 6600 Hz. […]

## CCC(CC)c1cc(CCN2CCCN(Cc3ccc(C(F)(F)F)cc3)CC2)nc(-c2ccncc2)n1 [Compound 14av_amine16, 1-(2-(6-(pentan-3-yl)-2-(pyridin-4-yl)pyrimidin-4-yl)ethyl)-4-(4-(trifluoromethyl)benzyl)-1,4-diazepane]
[1]; 50 mg/Kg, lethal dose 2.5×10^6 CFU/larva MRSA ATCC 43300
  survival time of infected larvae: 36 h
[1]; 100 mg/Kg, lethal dose MRSA ATCC 43300, 48 h
  survival rate of infected larvae over the infection period: 20%
[2]
  binding to FtsZ protein by STD NMR: indeed bind to FtsZ protein
